System: mRNA expressed from the genes (A) to (D) in rat liver
Test: Behavior of genes (mRNA expression level, oligo-DNA microarray) in rat liver after 28-day oral administration
Type: in vivo
Details: for Behavior of gene caused by administration of chemical substance, Gene No. 4846 / Behavior of gene caused by administration of chemical substance, Gene No. 2026 / Behavior of gene caused by administration of chemical substance, Gene No. 4218 / Behavior of gene caused by administration of chemical substance, Gene No. 6182 / Behavior of gene caused by administration of chemical substance, Gene No. 5600: gene group (A); for Behavior of gene caused by administration of chemical substance, Gene No. 4846: Unigene No. Rn.144554; for Behavior of gene caused by administration of chemical substance, Gene No. 2026 / Behavior of gene caused by administration of chemical substance, Gene No. 4218: Unigene No. Rn.167075; for Behavior of gene caused by administration of chemical substance, Gene No. 6182: Unigene No. Rn.5834; for Behavior of gene caused by administration of chemical substance, Gene No. 5600: Unigene No. Rn.9836; for Behavior of gene caused by administration of chemical substance, Gene No. 1494 / Behavior of gene caused by administration of chemical substance, Gene No. 2045 / Behavior of gene caused by administration of chemical substance, Gene No. 2203: gene group (B); for Behavior of gene caused by administration of chemical substance, Gene No. 1494: Unigene No. Rn.1430; for Behavior of gene caused by administration of chemical substance, Gene No. 2045: Unigene No. Rn.19329; for Behavior of gene caused by administration of chemical substance, Gene No. 2203: Unigene No. Rn.21240; for Behavior of gene caused by administration of chemical substance, Gene No. 533 / Behavior of gene caused by administration of chemical substance, Gene No. 725 / Behavior of gene caused by administration of chemical substance, Gene No. 1163 / Behavior of gene caused by administration of chemical substance, Gene No. 4973 / Behavior of gene caused by administration of chemical substance, Gene No. 4095 / Behavior of gene caused by administration of chemical substance, Gene No. 1334 / Behavior of gene caused by administration of chemical substance, Gene No. 6620 / Behavior of gene caused by administration of chemical substance, Gene No. 6303 / Behavior of gene caused by administration of chemical substance, Gene No. 5878 / Behavior of gene caused by administration of chemical substance, Gene No. 1131 / Behavior of gene caused by administration of chemical substance, Gene No. 1562 / Behavior of gene caused by administration of chemical substance, Gene No. 1741 / Behavior of gene caused by administration of chemical substance, Gene No. 893 / Behavior of gene caused by administration of chemical substance, Gene No. 6026 / Behavior of gene caused by administration of chemical substance, Gene No. 154 / Behavior of gene caused by administration of chemical substance, Gene No. 1993 / Behavior of gene caused by administration of chemical substance, Gene No. 813 / Behavior of gene caused by administration of chemical substance, Gene No. 2494 / Behavior of gene caused by administration of chemical substance, Gene No. 2546 / Behavior of gene caused by administration of chemical substance, Gene No. 3776 / Behavior of gene caused by administration of chemical substance, Gene No. 3929 / Behavior of gene caused by administration of chemical substance, Gene No. 1119 / Behavior of gene caused by administration of chemical substance, Gene No. 6742 / Behavior of gene caused by administration of chemical substance, Gene No. 5634: gene group (C); for Behavior of gene caused by administration of chemical substance, Gene No. 533: Unigene No. Rn.106184; for Behavior of gene caused by administration of chemical substance, Gene No. 725: Unigene No. Rn.108075; for Behavior of gene caused by administration of chemical substance, Gene No. 1163: Unigene No. Rn.11766; for Behavior of gene caused by administration of chemical substance, Gene No. 4973: Unigene No. Rn.118529; for Behavior of gene caused by administration of chemical substance, Gene No. 4095: Unigene No. Rn.119024; for Behavior of gene caused by administration of chemical substance, Gene No. 1334 / Behavior of gene caused by administration of chemical substance, Gene No. 6620: Unigene No. Rn.120914; for Behavior of gene caused by administration of chemical substance, Gene No. 6303: Unigene No. Rn.123063; for Behavior of gene caused by administration of chemical substance, Gene No. 5878: Unigene No. Rn.143213; for Behavior of gene caused by administration of chemical substance, Gene No. 1131: Unigene No. Rn.144946; for Behavior of gene caused by administration of chemical substance, Gene No. 1562: Unigene No. Rn.14744; for Behavior of gene caused by administration of chemical substance, Gene No. 1741: Unigene No. Rn.1647; for Behavior of gene caused by administration of chemical substance, Gene No. 893: Unigene No. Rn.164817; for Behavior of gene caused by administration of chemical substance, Gene No. 6026: Unigene No. Rn.167685; for Behavior of gene caused by administration of chemical substance, Gene No. 154: Unigene No. Rn.185941; for Behavior of gene caused by administration of chemical substance, Gene No. 1993: Unigene No. Rn.18728; for Behavior of gene caused by administration of chemical substance, Gene No. 813: Unigene No. Rn.201760; for Behavior of gene caused by administration of chemical substance, Gene No. 2494: Unigene No. Rn.23969; for Behavior of gene caused by administration of chemical substance, Gene No. 2546: Unigene No. Rn.24561; for Behavior of gene caused by administration of chemical substance, Gene No. 3776: Unigene No. Rn.43232; for Behavior of gene caused by administration of chemical substance, Gene No. 3929: Unigene No. Rn.4620; for Behavior of gene caused by administration of chemical substance, Gene No. 1119: Unigene No. Rn.9757; for Behavior of gene caused by administration of chemical substance, Gene No. 6742: Unigene No. Rn.9779; for Behavior of gene caused by administration of chemical substance, Gene No. 5634: Unigene No. Rn.9862; for Behavior of gene caused by administration of chemical substance, Gene No. 5726: gene group (D), Unigene No. Rn.9939
Experimental: A test solution was prepared by dissolving each of the carcinogens and the non-carcinogens shown in Tables 2 to 6 in the corresponding solvent shown in Tables 2 to 6. Each of the thus prepared test solutions and the solvents used for the preparation was administered by oral gavage to rats in each group. As the rats, male rats (F344 SPF rats) at 5 weeks of age obtained from Charles River Laboratories Japan, Inc. were used. The animals were divided into groups, each containing four individuals. The volume of the solvent administered to the vehicle control group was set to the same volume as that of the test solution administered to the carcinogen administration group or the non-carcinogen administration group. The administration of the test solution or the solvent was performed once daily for 28 days. Apiece was excised from the liver of each of the rats after a lapse of 28 days from the initiation of the administration, and the total RNA was extracted and purified.
The expression level of mRNA was compared between each of the chemical substance administration groups and the corresponding vehicle control group, and genes that satisfy the requirements described in (A) to (D) were selected, respectively.
The case where the expression level of mRNA in the carcinogen administration group or the non-carcinogen administration group is 1.5 times or more or 1/1.5 or less of the expression level of the corresponding mRNA expressed in the control group was determined to be significant. In this connection, the determination as to whether or not the change is significant was performed by taking into consideration the direction of increase or decrease in the expression level. In the case where the direction of increase or decrease is different as compared with the case where another carcinogen was administered, the change was determined to be not significant.

## c1ccc2c(c1)cc1ccc3cccc4ccc2c1c34 [TS063, Benzo[a]pyrene]
mRNA vs vehicle control group
  Behavior of gene caused by administration of chemical substance, Gene No. 4846: −
  Behavior of gene caused by administration of chemical substance, Gene No. 2026: +
  Behavior of gene caused by administration of chemical substance, Gene No. 4218: −
  Behavior of gene caused by administration of chemical substance, Gene No. 6182: +
  Behavior of gene caused by administration of chemical substance, Gene No. 5600: −
  Behavior of gene caused by administration of chemical substance, Gene No. 1494: −
  Behavior of gene caused by administration of chemical substance, Gene No. 2045: +
  Behavior of gene caused by administration of chemical substance, Gene No. 2203: +
  Behavior of gene caused by administration of chemical substance, Gene No. 533: −
  Behavior of gene caused by administration of chemical substance, Gene No. 725: −
  Behavior of gene caused by administration of chemical substance, Gene No. 1163: −
  Behavior of gene caused by administration of chemical substance, Gene No. 4973: −
  Behavior of gene caused by administration of chemical substance, Gene No. 4095: −
  Behavior of gene caused by administration of chemical substance, Gene No. 1334: −
  Behavior of gene caused by administration of chemical substance, Gene No. 6620: −
  Behavior of gene caused by administration of chemical substance, Gene No. 6303: −
  Behavior of gene caused by administration of chemical substance, Gene No. 5878: −
  Behavior of gene caused by administration of chemical substance, Gene No. 1131: −
  Behavior of gene caused by administration of chemical substance, Gene No. 1562: −
  Behavior of gene caused by administration of chemical substance, Gene No. 1741: −
  Behavior of gene caused by administration of chemical substance, Gene No. 893: −
  Behavior of gene caused by administration of chemical substance, Gene No. 6026: −
  Behavior of gene caused by administration of chemical substance, Gene No. 154: −
  Behavior of gene caused by administration of chemical substance, Gene No. 1993: −
  Behavior of gene caused by administration of chemical substance, Gene No. 813: −
  Behavior of gene caused by administration of chemical substance, Gene No. 2494: −
  Behavior of gene caused by administration of chemical substance, Gene No. 2546: −
  Behavior of gene caused by administration of chemical substance, Gene No. 3776: −
  Behavior of gene caused by administration of chemical substance, Gene No. 3929: −
  Behavior of gene caused by administration of chemical substance, Gene No. 1119: −
  Behavior of gene caused by administration of chemical substance, Gene No. 6742: −
  Behavior of gene caused by administration of chemical substance, Gene No. 5634: +
  Behavior of gene caused by administration of chemical substance, Gene No. 5726: −

## COc1ccc2c(c1)c(CC(=O)O)c(C)n2C(=O)c1ccc(Cl)cc1 [TS085, Indomethacin]
  Behavior of gene caused by administration of chemical substance, Gene No. 4846: −
  Behavior of gene caused by administration of chemical substance, Gene No. 2026: −
  Behavior of gene caused by administration of chemical substance, Gene No. 4218: −
  Behavior of gene caused by administration of chemical substance, Gene No. 6182: −
  Behavior of gene caused by administration of chemical substance, Gene No. 5600: −
  Behavior of gene caused by administration of chemical substance, Gene No. 1494: −
  Behavior of gene caused by administration of chemical substance, Gene No. 2045: −
  Behavior of gene caused by administration of chemical substance, Gene No. 2203: −
  Behavior of gene caused by administration of chemical substance, Gene No. 533: −
  Behavior of gene caused by administration of chemical substance, Gene No. 725: −
  Behavior of gene caused by administration of chemical substance, Gene No. 1163: −
  Behavior of gene caused by administration of chemical substance, Gene No. 4973: −
  Behavior of gene caused by administration of chemical substance, Gene No. 4095: −
  Behavior of gene caused by administration of chemical substance, Gene No. 1334: −
  Behavior of gene caused by administration of chemical substance, Gene No. 6620: −
  Behavior of gene caused by administration of chemical substance, Gene No. 6303: −
  Behavior of gene caused by administration of chemical substance, Gene No. 5878: −
  Behavior of gene caused by administration of chemical substance, Gene No. 1131: −
  Behavior of gene caused by administration of chemical substance, Gene No. 1562: −
  Behavior of gene caused by administration of chemical substance, Gene No. 1741: −
  Behavior of gene caused by administration of chemical substance, Gene No. 893: −
  Behavior of gene caused by administration of chemical substance, Gene No. 6026: −
  Behavior of gene caused by administration of chemical substance, Gene No. 154: −
  Behavior of gene caused by administration of chemical substance, Gene No. 1993: −
  Behavior of gene caused by administration of chemical substance, Gene No. 813: −
  Behavior of gene caused by administration of chemical substance, Gene No. 2494: −
  Behavior of gene caused by administration of chemical substance, Gene No. 2546: −
  Behavior of gene caused by administration of chemical substance, Gene No. 3776: −
  Behavior of gene caused by administration of chemical substance, Gene No. 3929: −
  Behavior of gene caused by administration of chemical substance, Gene No. 1119: −
  Behavior of gene caused by administration of chemical substance, Gene No. 6742: −
  Behavior of gene caused by administration of chemical substance, Gene No. 5634: −
  Behavior of gene caused by administration of chemical substance, Gene No. 5726: −

Reference: patent US20110039721A1, “METHOD FOR PREDICTION ABOUT CARCINOGENICITY OF SUBSTANCE IN RODENT” (Chemicals Evaluation and Research Institute, priority 2007, published 2011)
